Patent US4179451A, “Novel hydroxy substituted 15-deoxy-5-cis-prostenoic acids and esters” (American Cyanamid Company, priority 1978, dated 1979)
Like-named read-outs stand apart in the source and are kept apart here.

What was measured:
[1] = test system: bronchospasms elicited by acetylcholine; test: Bronchodilator Activity (Konzett Assays), acetylcholine; type: in vivo, guinea pigs; conditions: Cavia porcellus; three logarithmic cumulative intravenous doses; spasmogen acetylcholine; read-out: ED50, Spasmogenic Agent Acetylcholine
Description: (§1) The compounds of this invention are useful as bronchodilators for the treatment of asthma and chronic bronchitis. Bronchodilator activity is determined in guinea pigs against bronchospasms elicited by intravenous injections of 5-hydroxytryptamine, histamine or acetylcholine by the Konzett procedure. [See J. Lulling, P. Lievens, F. El Sayed and J. Prignot, Arzneimittel-Forschung, 18, 955 (1968).]
(§2) In Table IV which follows bronchodilator activity for representative compounds of this invention against one or more of three spasmogenic agents is expressed as an ED50 determined from the results obtained with three logarithmic cummulative intravenous doses. In this assay, these compounds of this invention provide an effect of longer duration than does natural l-PGE1 or l-PGE2.

[2] = test system: bronchospasms elicited by histamine; test: Bronchodilator Activity (Konzett Assays), histamine; type: in vivo, guinea pigs; conditions: Cavia porcellus; three logarithmic cumulative intravenous doses; spasmogen histamine; read-out: ED50, Spasmogenic Agent histamine
Description: as §1, §2

[3] = test system: bronchospasms elicited by 5-hydroxytryptamine; test: Bronchodilator Activity (Konzett Assays), 5-hydroxytryptamine; type: in vivo, guinea pigs; conditions: Cavia porcellus; three logarithmic cumulative intravenous doses; spasmogen 5-hydroxytryptamine; read-out: ED50, Spasmogenic Agent 5-hydroxytryptamine
Description: as §1, §2

[4] = test system: basal gastric acid secretion; test: Inhibition of basal gastric acid secretion in the Acute Gastric Fistula Rat; type: in vivo, Female Sprague-Dawley rats; conditions: 1 h, intraduodenal 10 mg./kg., after 60 minutes, read-out: % Inhibition of Total Acid or Output
Description: Inhibition of basal gastric acid secretion can be determined by the following procedure. Female Sprague-Dawley rats weighing 140-160 grams are fastened in individual cages for 18-24 hours. The rats are then lightly anesthetized with ether and their front teeth extracted to avoid destruction of the plastic cannula. A midline incision is then made and the stomach and duodenum exposed. A flanged polyvinyl tube is inserted into the fundic portion of the stomach and secured with a purse string suture line using 4-O Mersilene. The rat is then dosed by injection of the compound into the duodenum (1.0 ml. per 100 gram body weight). After dosing, the abdominal wall and skin are closed using metal wound clips. The rat is replaced in a cage containing a longitudinal slit to allow the polyvinyl tube to hang freely. An 8 ml. plastic collecting tube is attached to the flanged cannula and hangs freely below the cage. The first 30 minute sample is discarded designating this time as zero. The collecting tube is attached again and samples removed at the end of 60 and/or 120 minutes. The hourly samples are then transferred to a 15 ml. centrifuge and centrifuged for 5-10 minutes. Total and sediment volume are then recorded with supernatent volume being used as volume of secretion. A 1 ml. or less aliquot is then removed and placed in a 50 ml. beaker containing 10 ml. of distilled water. This sample is then titrated using 0.01 N to Na H to pH 7.0 using a Beckman zeromatic pH meter. Volume, titratable acidity (meq/L) and total acid output (μeq/hour) are recorded. Percent inhibition is determined by comparison with the appropriate control. Groups of three rats are used for preliminary testing, and groups of six rats are used for dose-response evaluations. All compounds are administered in a vehicle consisting of 0.5% methocel, 0.4% tween 80, and saline at a constant volume of 1 ml./100 gram rat. Samples are dispersed by sonification. Percent inhibition is calculated on basis of concurrent vehicle control.
In Table III which follows is given the effect on total acid output after 60 minutes of a 10 mg./kg. intraduodenal dose of representative compounds of this invention.

[5] = test system: basal gastric acid secretion; test: as above; type: in vivo, Female Sprague-Dawley rats; conditions: read-out: % Inhibition of Total Acid or Output; for inhibition in vivo at 2.5 mg/kg: intraduodenal 2.5 mg./kg.; for inhibition in vivo at 0.63 mg/kg: intraduodenal 0.63 mg./kg.
[6] = test system: mean arterial blood pressure; test: Hypotensive Response (normotensive rat); type: in vivo, Male Wistar strain rats; conditions: anesthetized rat
Description: This procedure is a modification of the techniques described by Pike et al., Prostaglandins, Nobel Symposium 2, Stockholm, June, 1966; p. 165.
Male Wistar strain rats (Royal Hart Farms) averaging approximately 250 grams in weight were fastened to rat boards in a supine position by means of canvas vests and limb ties. The femoral area was infiltrated subcutaneously with lidocaine and the iliac artery and vein were exposed and cannulated. Arterial blood pressure (systolic/diastolic) was recorded using a Statham P23 Bb pressure transducer-Offner dynograph system. To obtain a stable blood pressure, the animals were anethetized before use with pentobarbital, 30 mg./kg. of body weight intravenously, and also were given hexamethoxium bitartrate, 2 mg./kg. of body weight intravenously. The test compounds were prepared by ultrasonic dispersion in a Saline-Tween 80® vehicle. A constant intravenous dose volume of 0.5 ml. was administered and test doses ranged from 0.1 to 10.0 mg./kg. of body weight.
In Table V below are recorded the percent decrease from normal of mean arterial blood pressure induced by given doses of representative compounds of this invention.

[7] = test system: ulcerogenic properties of indomethacin; test: protection against the ulcerogenic properties of indomethacin; type: in vivo, Rats; conditions: indomethacin 20 mg./kg. s.c., score 0 (normal stomach) to 4, control 3.0
Description: The protection against the ulcerogenic properties of indomethacin was determined in the following manner. Rats were starved for 48 hours (water was given ad libitum). Indomethacin (20 mg./kg. of body weight) was administered by the subcutaneous route and one-half the dose of the test compound was administered by gavage at the same time. After three hours, the second half of the test compound was administered also by gavage. Five hours after the administration of indomethacin the animals were decapitated and the stomachs removed. The stomachs were washed with distilled water, blotted on gauze, cut along the larger curvature, and the contents rinsed with distilled water. The stomachs were spread out, pinned on a cork and visualized under magnifying glass for ulcers. The criteria for scoring of ulcers was as previously reported [Abdel-Galil et al. Brit. J. Pharmac. Chemotherapy 33:1-14 (1968)].
1--Petechial hemorrhage or pin point ulcer
3--Many ulcers, a few large
4--Many ulcers, mainly large
A difference of at least 0.7 unit between the scores for control animals (treated with indomethacin but not test compound) and animals treated with indomethacin and test compound is considered indicative of activity from the test compound. […]

gastric acid secretion = test: Gastric acid secretion inhibitory action (Shay rat procedure); type: in vivo, rats (male, CFE strain)
[8] = 1 h, oral dose 10 mg./kg., after 60 minutes

Compound | ED50 [1] [µg/kg] | ED50 [2] [µg/kg] | ED50 [3] [µg/kg] | inhibition in vivo at 10 mg/kg [4] [%] | other results
CCC/C=C/C(O)C/C=C/[C@H]1C=CC(=O)[C@@H]1C/C=C\CCCC(=O)O (relative stereo) [9-oxo-16-hydroxy-20-methyl-5-cis,10,13-trans,17-trans-prostatetraenoic acid] | 2280 | 369 | 625 | – | –
CCCCC(O)C/C=C/[C@H]1[C@H](O)CC(=O)[C@@H]1C/C=C\CCCC(=O)OC (relative stereo) [methyl 9-oxo-11α,16-dihydroxy-5-cis,13-trans-prostadienoate] | – | – | – | 100 | inhibition in vivo at 0.625 mg/kg ([5]; 1 h, oral dose 0.625 mg./kg., after 60 minutes): 51%; inhibition in vivo at 1.25 mg/kg ([5]; 1 h, oral dose 1.25 mg./kg., after 60 minutes): 75%
CCCCC(O)C/C=C/[C@@H]1[C@@H](C/C=C\CCCC(=O)O)[C@H](O)C[C@H]1O (relative stereo) [9β,11α,16-trihydroxy-5-cis,13-trans-prostadienoic acid] | – | – | – | – | % Decrease in Mean Arterial Blood Pressure ([6]; intravenous 2.1 mg./kg.): 24%
CCC/C=C/C(O)C/C=C/[C@H]1[C@H](O)CC(=O)[C@@H]1C/C=C\CCCC(=O)O (relative stereo) [9-oxo-11α,16-dihydroxy-20-methyl-5-cis,13-trans,17-trans-prostatrienoic acid] | 4 | 2.2 | 1.2 | 44 | –
CCCC(C)C(O)C/C=C/[C@H]1[C@H](O)CC(=O)[C@@H]1C/C=C\CCCC(=O)OC (relative stereo) [methyl 9-oxo-11α,16-dihydroxy-17-methyl-5-cis,13-trans-prostadienoate] | – | – | – | 76 | % Decrease in Mean Arterial Blood Pressure ([6]; intravenous 1.2 mg./kg.): 42%
CCCCCC(O)C/C=C/[C@H]1[C@H](O)CC(=O)[C@@H]1C/C=C\CCCC(=O)O (relative stereo) [9-oxo-11α,16-dihydroxy-20-methyl-5-cis,13-trans-prostadienoic acid] | 0.72 | 0.29 | 0.32 | 42 | –
CCCCC(O)C/C=C/[C@H]1C=CC(=O)[C@@H]1C/C=C\CCCC(=O)O (relative stereo) [9-oxo-16-hydroxy-5-cis-10,13-trans-prostatrienoic acid] | 1540 | 81 | 125 | 44 | –
CC/C=C/C(O)C/C=C/[C@H]1C=CC(=O)[C@@H]1C/C=C\CCCC(=O)O (relative stereo) [9-oxo-16-hydroxy-5-cis,10,13-trans,17-trans-prostatetraenoic acid] | – | – | – | 83 | inhibition in vivo at 10 mg/kg [5, 8]: 43%
CCCCCC(/C=C/[C@H]1[C@H](O)CC(=O)[C@@H]1C/C=C\CCCC(=O)O)CO (relative stereo) [9-oxo-11α-hydroxy-15-hydroxymethyl-5-cis,13-trans-prostadienoic acid] | – | – | – | 5 | –
CCCCCCCCCCOC(=O)CCC/C=C\C[C@H]1C(=O)C[C@@H](O)[C@@H]1/C=C/CC(O)CCCC (relative stereo) [decyl 9-oxo-11α,16-dihydroxy-5-cis,13-trans-prostadienoate] | – | – | – | 60 | –
CCCCC(O)C/C=C/[C@H]1[C@H](O)CC(=O)[C@@H]1C/C=C\CCCC(=O)O (relative stereo) [9-oxo-11α,16-dihydroxy-5-cis; 13-trans-prostadienoic acid] | 17.3 | 2.1 | 3.6 | 69 | inhibition in vivo at 2.5 mg/kg ([5]; 1 h, after 60 minutes): 42%; Score treated ([7]; total oral dose 0.39 mg./kg. of body weight): 2.0; Score treated ([7]; total oral dose 0.78 mg./kg. of body weight): 1.0; % Decrease in Mean Arterial Blood Pressure ([6]; intravenous 2.1 mg./kg.): 27%; Percent Inhibition (gastric acid secretion; subcutaneous dose 0.4 mg./kg.): 35%; Percent Inhibition (gastric acid secretion; subcutaneous dose 0.8 mg./kg.): 44%; Percent Inhibition (gastric acid secretion; subcutaneous dose 1.6 mg./kg.): 48%
CCCCC(C/C=C/[C@H]1[C@H](OC2CCCCO2)CC(=O)[C@@H]1C/C=C\CCCC(=O)O)OC(c1ccccc1)(c1ccccc1)c1ccccc1 (relative stereo) [9-oxo-11α-tetrahydropyranyloxy-16-triphenylmethoxy-5-cis,13-trans-prostadienoic acid] | – | – | – | 68 | –
CCCC(C)C(O)C/C=C/[C@@H]1[C@@H](C/C=C\CCCC(=O)O)[C@@H](O)C[C@H]1O (relative stereo) [9α,11α,16-trihydroxy-17-methyl-5-cis,13-trans-prostadienoic acid] | – | – | – | 96 | inhibition in vivo at 0.63 mg/kg ([5]; 1 h, after 60 minutes): 55%; inhibition in vivo at 2.5 mg/kg ([5]; 1 h, after 60 minutes): 66%; inhibition in vivo at 0.63 mg/kg ([5]; 2 h, after 120 minutes): 47%; inhibition in vivo at 2.5 mg/kg ([5]; 2 h, after 120 minutes): 62%; inhibition in vivo at 10 mg/kg ([5]; 2 h, intraduodenal 10 mg./kg., after 120 minutes): 98%
CCCC(C)C(O)C/C=C/[C@H]1[C@H](O)CC(=O)[C@@H]1C/C=C\CCCC(=O)O (relative stereo) [9-oxo-11α,16-dihydroxy-17-methyl-5-cis,13-trans-prostadienoic acid] | 3 | 0.49 | 1.9 | 93 | inhibition in vivo at 10 mg/kg [5, 8]: 89%; inhibition in vivo at 10 mg/kg ([5]; 2 h, oral dose 10 mg./kg., after 120 minutes): 85%; % Decrease in Mean Arterial Blood Pressure ([6]; intravenous 1.0 mg./kg.): 42%
